In brackets after ≈: the same amount, converted by molar mass.
Columns and labels:
Psilocybe cubensis = assay: Antifungal activity Psilocybe cubensis; format: functional, organism-based
Phytophthora infestans = assay: Antifungal activity Phytophthora infestans; format: functional, organism-based
[1] = tested on: Feline immunodeficiency virus; assay: Antiviral activity against Feline immunodeficiency virus; format: functional, organism-based
[2] = tested on: Mycobacterium tuberculosis; assay: Antitubercular activity against Mycobacterium tuberculosis; format: functional
Streptococcus pneumoniae = assay: Antibacterial activity against Streptococcus pneumoniae; format: functional
RAW264.7 = assay: Anti-inflammatory activity against mouse RAW264.7 cells assessed as inhibition of LPS-induced NO production at 50 ug/ml relative to control; format: functional; set-up: scale not given: the % may be the effect or the level left
Human gammaherpesvirus 4 = assay: Antiviral activity against Epstein-Barr virus; format: functional, organism-based
[3] = tested on: Staphylococcus epidermidis; assay: Antibacterial activity against Staphylococcus epidermidis ATCC 12228 by broth microdilution method; format: functional
Staphylococcus aureus [4] = assay: Antibacterial activity against Staphylococcus aureus ATCC 25923 by broth microdilution method; format: functional
Staphylococcus aureus [5] = assay: Antibacterial activity against Staphylococcus aureus ATCC 6538 by broth microdilution method; format: functional
[6] = biological target: 72 kDa type IV collagenase (Homo sapiens, UniProt P08253); assay: Inhibition of MMP2 catalytic domain (unknown origin) using Ac-PLG-[2-mercapto-4-methylpentanoyl]-LG-OC2H5 as substrate preincubated for 45 to 120 mins followed by substrate addition measured for 30 mins in 1 min time interval
Sequence of 72 kDa type IV collagenase (P08253 whole entry, the tested form may be a part): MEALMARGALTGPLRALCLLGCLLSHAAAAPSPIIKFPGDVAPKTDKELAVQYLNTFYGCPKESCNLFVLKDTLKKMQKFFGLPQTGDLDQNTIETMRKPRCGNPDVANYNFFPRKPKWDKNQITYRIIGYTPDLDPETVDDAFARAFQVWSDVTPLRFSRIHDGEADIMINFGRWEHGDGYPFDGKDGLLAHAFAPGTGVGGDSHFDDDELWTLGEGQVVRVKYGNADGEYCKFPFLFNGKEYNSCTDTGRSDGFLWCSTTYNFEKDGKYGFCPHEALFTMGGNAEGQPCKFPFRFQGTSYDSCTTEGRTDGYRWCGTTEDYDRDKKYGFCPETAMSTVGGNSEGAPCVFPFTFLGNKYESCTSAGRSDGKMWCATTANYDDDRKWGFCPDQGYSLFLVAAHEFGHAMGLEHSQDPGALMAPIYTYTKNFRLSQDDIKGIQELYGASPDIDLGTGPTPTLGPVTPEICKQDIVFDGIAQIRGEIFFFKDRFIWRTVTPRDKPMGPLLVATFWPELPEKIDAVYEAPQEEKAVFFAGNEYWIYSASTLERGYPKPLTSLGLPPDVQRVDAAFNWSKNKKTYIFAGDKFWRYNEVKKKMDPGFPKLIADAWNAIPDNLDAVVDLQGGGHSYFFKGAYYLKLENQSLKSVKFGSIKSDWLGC

Alpha glucosidase = Alpha glucosidase (Homo sapiens, UniProt O43451+P10253+P14410+Q2M2H8); assay: Inhibition of alpha-glucosidase (unknown origin) using p-nitrophenyl alpha-d-glucopyranoside as substrate preincubated for 15 mins followed by substrate addition measured after 30 mins by spectrophotometric analysis; format: protein assay
HepG2 = assay: Growth inhibition of human HepG2 cells by MTT assay; format: functional
HT-29 = assay: Growth inhibition of human HT-29 cells by MTT assay; format: functional
NCI-H460 = assay: Growth inhibition of human NCI-H460 cells by MTT assay; format: functional
Jurkat = assay: Anticancer activity against human Jurkat cells; format: functional, cell-based
A-431 = assay: Anticancer activity against human A431 cells; format: functional, cell-based
[7] = biological target: Prostaglandin G/H synthase 2 (Homo sapiens, UniProt P35354); assay: Inhibition of COX2 (unknown origin) by EIA
Sequence of Prostaglandin G/H synthase 2 (P35354 whole entry): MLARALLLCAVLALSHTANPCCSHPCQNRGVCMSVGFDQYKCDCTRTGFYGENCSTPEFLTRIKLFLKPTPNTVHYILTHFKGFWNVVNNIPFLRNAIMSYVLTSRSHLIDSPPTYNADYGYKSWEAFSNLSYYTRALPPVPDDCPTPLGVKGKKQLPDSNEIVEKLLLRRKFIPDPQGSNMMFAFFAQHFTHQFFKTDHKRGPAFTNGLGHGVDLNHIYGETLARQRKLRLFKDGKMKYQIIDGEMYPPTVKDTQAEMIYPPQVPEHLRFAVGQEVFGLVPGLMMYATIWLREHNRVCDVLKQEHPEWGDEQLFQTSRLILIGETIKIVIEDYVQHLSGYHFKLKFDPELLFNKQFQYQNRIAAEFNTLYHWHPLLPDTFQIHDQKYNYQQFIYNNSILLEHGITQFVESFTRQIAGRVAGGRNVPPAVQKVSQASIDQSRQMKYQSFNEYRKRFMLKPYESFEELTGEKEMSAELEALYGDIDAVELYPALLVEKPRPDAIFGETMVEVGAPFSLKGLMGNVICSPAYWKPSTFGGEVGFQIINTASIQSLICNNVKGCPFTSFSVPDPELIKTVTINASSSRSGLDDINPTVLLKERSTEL

Rattus norvegicus [8] = assay: Anti-inflammatory activity against carrageenan-induced Albino Wistar rat paw edema model assessed as inhibition of rat paw edema at 50 mg/kg, po after 5 hrs relative to control; format: functional
Escherichia coli = assay: Antibacterial activity against Escherichia coli; format: functional, organism-based
Staphylococcus aureus [9] = assay: Antibacterial activity against Staphylococcus aureus; format: functional, organism-based
Bacillus subtilis = assay: Antibacterial activity against Bacillus subtilis; format: functional, organism-based
Pseudomonas aeruginosa = assay: Antibacterial activity against Pseudomonas aeruginosa; format: functional, organism-based
Candida albicans = assay: […] activity against Candida albicans; format: functional, organism-based
Rattus norvegicus [10] = assay: Anti-inflammatory activity against carrageenan-induced Albino Wistar rat paw edema model assessed as inhibition of rat paw edema at 10 mg/kg, po pretreated for 1 hr followed by carrageenan addition measured after 1 to 4 hrs relative to control; format: functional
Klebsiella pneumoniae = assay: Antibacterial activity against Klebsiella pneumoniae; format: functional, organism-based
[11] = Antioxidant activity assessed as DPPH radical scavenging activity after 30 mins under dark condition; format: functional
[12] = biological target: Quinolone resistance protein NorA (Staphylococcus aureus) (UniProt P0A0J7); assay: Inhibition of NorA in Staphylococcus aureus measured after 1 hr by ethidium bromide staining based agar-cartwheel assay method
Rattus norvegicus [13] = assay: Anti-inflammatory activity against carrageenan-induced Albino Wistar rat paw edema model assessed as inhibition of rat paw edema at 50 mg/kg, po pretreated for 1 hr followed by carrageenan addition measured after 1 to 4 hrs relative to control; format: functional
Leishmania amazonensis = assay: Antileishmanial activity against Leishmania amazonensis promastigotes; format: functional, organism-based
[14] = biological target: Peroxisome proliferator-activated receptor gamma (Homo sapiens, UniProt P37231); assay: Inhibition of PPARgamma (unknown origin)
Sequence of Peroxisome proliferator-activated receptor gamma (P37231 whole entry): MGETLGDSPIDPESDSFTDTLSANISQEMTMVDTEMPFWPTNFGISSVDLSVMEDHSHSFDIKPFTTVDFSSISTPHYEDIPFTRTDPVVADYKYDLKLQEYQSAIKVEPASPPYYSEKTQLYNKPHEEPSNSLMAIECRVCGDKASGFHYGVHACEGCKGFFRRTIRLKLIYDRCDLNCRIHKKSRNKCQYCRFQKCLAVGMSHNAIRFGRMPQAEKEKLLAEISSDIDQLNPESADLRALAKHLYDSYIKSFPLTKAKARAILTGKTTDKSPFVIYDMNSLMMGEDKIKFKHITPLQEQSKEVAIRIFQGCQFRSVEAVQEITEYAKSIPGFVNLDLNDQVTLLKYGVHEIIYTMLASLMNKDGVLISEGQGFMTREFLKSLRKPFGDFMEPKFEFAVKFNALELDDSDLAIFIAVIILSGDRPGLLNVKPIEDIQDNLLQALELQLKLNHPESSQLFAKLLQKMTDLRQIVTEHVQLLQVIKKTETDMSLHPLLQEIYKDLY

[15] = biological target: Large neutral amino acids transporter small subunit 1 (Homo sapiens, UniProt Q01650); assay: Inhibition of recombinant human LAT1
Sequence of Large neutral amino acids transporter small subunit 1 (Q01650 whole entry): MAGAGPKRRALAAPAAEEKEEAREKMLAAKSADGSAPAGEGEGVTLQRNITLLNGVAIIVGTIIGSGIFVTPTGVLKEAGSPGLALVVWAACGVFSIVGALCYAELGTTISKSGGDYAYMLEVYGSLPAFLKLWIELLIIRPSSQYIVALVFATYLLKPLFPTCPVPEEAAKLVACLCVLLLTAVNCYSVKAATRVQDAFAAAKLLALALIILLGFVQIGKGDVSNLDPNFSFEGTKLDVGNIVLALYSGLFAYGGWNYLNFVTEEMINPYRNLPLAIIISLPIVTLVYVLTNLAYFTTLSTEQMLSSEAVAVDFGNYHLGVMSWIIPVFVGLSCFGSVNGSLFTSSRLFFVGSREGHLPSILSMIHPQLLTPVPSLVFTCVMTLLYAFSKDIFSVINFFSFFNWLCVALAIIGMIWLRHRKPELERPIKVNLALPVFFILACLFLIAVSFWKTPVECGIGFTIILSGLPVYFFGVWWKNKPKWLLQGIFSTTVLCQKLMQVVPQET

MCF7 [16] = assay: Growth inhibition of human MCF7 cells after 48 hrs by SRB assay; format: functional; conditions: MCF7, 48 h
MCF7 [17] = assay: Cytotoxicity against human MCF7 cells after 72 hrs by MTT assay; format: functional, cell-based; conditions: MCF7, 72 h
MCF7 [18] = assay: Potency index, ratio of doxorubicin IC50 to compound IC50 for human MCF7 cells; format: functional

Which EC50 (Psilocybe cubensis) does the source give for `O=C(c1cccc(Br)c1)N1CCC(c2cc(-c3snc(Cl)c3Cl)ns2)CC1` here?
Its EC50 is 0.046 µg/mL (≈ 0.0914 µM).

What about the EC50 (Phytophthora infestans) of the same compound?
Its EC50 is 0.27 µg/mL (≈ 0.536 µM).

With `S=c1ssnc1-c1ccccc1` as the compound, how does the EC50 [1] read?
The EC50 was 0.023 µM.

For `Fc1ccc(-c2cn(Cc3csc(-c4ccccc4)n3)nn2)cc1`, which MIC [2] is on record?
Its MIC is 8.99 µg/mL (≈ 26.7 µM).

Which MIC (Streptococcus pneumoniae) does the source give for `CC1(C)S[C@@H]2[C@H](NC(=O)[C@H](N)c3ccccc3)C(=O)N2[C@H]1C(=O)O` [AMPICILLIN] here?
Its MIC is 0.03 µg/mL (≈ 0.0859 µM).

For `N#Cc1ccc(/N=N/c2ccc(/C=C3\SC(=O)NC3=O)c(/N=N/c3ccc(C#N)cc3)c2O)cc1`, which Activity (RAW264.7) is on record?
The Activity was 60%.

For `COc1ccc([C@H]2c3sc(=O)[nH]c3SC[C@H]2C=O)cc1`, which EC50 (Human gammaherpesvirus 4) is on record?
The EC50 was 0.07 µM.

For `O=C(CC1SC(=O)NC1=O)Oc1ccc(/C=C2/SC(=O)NC2=O)cc1Br` (configuration not stated), which MIC [3] is on record?
Its MIC is 7.81 µg/mL (≈ 17.1 µM).

And the MIC (Staphylococcus aureus [4])?
The MIC was 3.91 µg/mL (≈ 8.55 µM).

What about the MIC (Staphylococcus aureus [5]) of the same compound?
Its MIC is 3.91 µg/mL (≈ 8.55 µM).

Which IC50 [6] does the source give for `O=S(=O)(CC1CS1)c1ccc(-n2cc(-c3ccc(-c4ccncc4)cc3)nn2)cc1` (configuration not stated) here?
Its IC50 is 0.62 µM.

With `COc1ccc(-c2csc(NC(=O)CSc3nnc(-c4ccc(Br)cc4)c(-c4ccc(Br)cc4)n3)n2)cc1` as the compound, how does the IC50 (Alpha glucosidase) read?
Its IC50 is 2.85 µM.

What does the source list for `COc1cccc2c1C(=O)c1c(O)c3c(c(O)c1C2=O)C[C@@](O)(C(=O)CO)C[C@@H]3O[C@H]1C[C@H](N)[C@H](O)[C@H](C)O1` [DOXORUBICIN]?
GI50 (HepG2): 0.04 µM; GI50 (HT-29): 0.05 µM; GI50 (NCI-H460): 0.09 µM; IC50 (Jurkat): 45.9 µM; IC50 (A-431): 42.4 µM

Which IC50 [7] does the source give for `COc1ccc(-c2nn(-c3ccc(S(C)(=O)=O)cc3)cc2/C=C2\SC(=O)NC2=O)cc1` here?
Its IC50 is 0.88 µM.

What about the inhibition in vivo at 50 mg/kg (Rattus norvegicus [8]) of the same compound?
The inhibition in vivo at 50 mg/kg was 80.2%.

What does the source list for `O=C(N[C@H](CO)[C@H](O)c1ccc([N+](=O)[O-])cc1)C(Cl)Cl` [CHLORAMPHENICOL]?
IC50 (Escherichia coli; Escherichia coli): 22.5 µM; IC50 (Staphylococcus aureus [9]; Staphylococcus aureus): 22.5 µM; IC50 (Bacillus subtilis; Bacillus subtilis): 22.5 µM; IC50 (Pseudomonas aeruginosa; Pseudomonas aeruginosa): 22.5 µM; IC50 (Candida albicans; Candida albicans): 22.5 µM

Which MIC (Streptococcus pneumoniae) does the source give for `C=CCNc1nc(C)c(C2=NN(C(N)=S)[C@H](c3ccc(Cl)cc3)C2)s1` here?
Its MIC is 0.12 µg/mL (≈ 0.306 µM).

With NYSTATIN as the compound, how does the IC50 (Escherichia coli) read?
The IC50 was 7.3 µM.

And the IC50 (Staphylococcus aureus [9])?
Its IC50 is 7.3 µM.

What about the IC50 (Bacillus subtilis) of the same compound?
Its IC50 is 7.3 µM.

And the IC50 (Pseudomonas aeruginosa)?
The IC50 was 7.3 µM.

And the IC50 (Candida albicans)?
Its IC50 is 7.3 µM.

For `COc1ccc2c(c1)c(CC(=O)O)c(C)n2C(=O)c1ccc(Cl)cc1` [INDOMETHACIN], which inhibition in vivo at 10 mg/kg (Rattus norvegicus [10]) is on record?
Its inhibition in vivo at 10 mg/kg is 47.7%.

Which MIC (Klebsiella pneumoniae) does the source give for GENTAMICIN here?
Its MIC is 0.03 µg/mL.

With `O=C1O[C@H]([C@@H](O)CO)C(O)=C1O` [ASCORBIC ACID] as the compound, how does the IC50 [11] read?
The IC50 was 16.9 µM.

Which MIC [12] does the source give for `O=C(Nc1nc(=S)ss1)c1ccc(Cl)cc1` here?
Its MIC is 0.5 µg/mL (≈ 1.73 µM).

With `N#Cc1c(-c2ccc(N3CCOCC3)cc2)csc1NC(=O)CN1CCOCC1` as the compound, how does the inhibition in vivo at 50 mg/kg (Rattus norvegicus [13]) read?
The inhibition in vivo at 50 mg/kg was 58.5%.

With `O=C(O)c1sc(-c2ccc(Cl)cc2)cc1C1C=C(c2ccccc2)c2c1ncn1c(-c3ccc(Cl)cc3)nnc21` (configuration not stated) as the compound, how does the GI50 (HepG2) read?
The GI50 was 0.02 µM.

What about the GI50 (HT-29) of the same compound?
Its GI50 is 0.03 µM.

What about the GI50 (NCI-H460) of the same compound?
The GI50 was 0.05 µM.

Which IC50 (Leishmania amazonensis) does the source give for `COc1ccc2nc3cc(Cl)ccc3c(Nc3sc4c(c3C#N)CCC4)c2c1` here?
The IC50 was 9.6 µM.

For `Cc1ccc(Nc2nc(N(C)C)c(C#N)s2)cc1C`, which IC50 (Jurkat) is on record?
Its IC50 is 34.8 µM.

And the IC50 (A-431)?
Its IC50 is 34.3 to 34.8 µM.

For `CCCCNC(=O)CN1C(=O)S/C(=C/c2ccc(Cl)cc2)C1=O`, which EC50 [14] is on record?
The EC50 was 5.9 µM.

With `COc1ccc(C2SCC(=O)N2c2ccc3nc(Cc4ccc(O)cc4)c(=O)[nH]c3c2)cc1` (configuration not stated) as the compound, how does the IC50 [11] read?
Its IC50 is 19.6 µM.

With `FC(F)(F)Oc1ccc(/N=c2\ssnc2Cl)nc1` as the compound, how does the IC50 [15] read?
Its IC50 is 0.98 µM.

For `N#Cc1ccccc1-c1nnc(-c2ccc(/C=C3\SC(=O)NC3=O)cc2)o1`, which GI50 (MCF7 [16]) is on record?
The GI50 was 0.004 µM.

What does the source list for `N#Cc1c(/N=C/c2cc3cc(Br)ccc3[nH]2)sc2c1CCCCC2`?
IC50 (MCF7 [17]): 14.9 µM; Ratio IC50 (MCF7 [18]): 3.51

From ChEMBL document CHEMBL4406816, “Role of sulphur-heterocycles in medicinal chemistry: An update” (Eur J Med Chem, 2019)
